Assay results reported in PubChem BioAssay (NCI).
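Step 1: Grow cells in 96-well plates. Step 2: Expose to compound for 48 hours at 5 concentrations. Step 3: Interpolate endpoints linearly; if unreached, use highest concentration. GI50 is the concentration that inhibits growth by half. TGI is the concentration that stops growth completely.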

Legend:
Assay in all cases: NCI anticancer screen, dose series, 48 h
CAKI-1 renal = test system: CAKI-1 renal
SF-268 CNS = test system: SF-268 CNS
RPMI-8226 leukemia = test system: RPMI-8226 leukemia
T-47D breast = test system: T-47D breast
OVCAR-4 ovarian = test system: OVCAR-4 ovarian
NCI-H23 lung = test system: NCI-H23 lung
UACC-62 melanoma = test system: UACC-62 melanoma
HCT-15 colon = test system: HCT-15 colon
HL-60(TB) leukemia = test system: HL-60(TB) leukemia
CCRF-CEM leukemia = test system: CCRF-CEM leukemia

Row | SMILES | GI50 (CAKI-1 renal) [µM] | TGI (CAKI-1 renal) [µM] | GI50 (SF-268 CNS) [µM] | TGI (SF-268 CNS) [µM] | GI50 (RPMI-8226 leukemia) [µM] | TGI (RPMI-8226 leukemia) [µM] | GI50 (T-47D breast) [µM] | TGI (T-47D breast) [µM] | GI50 (OVCAR-4 ovarian) [µM] | TGI (OVCAR-4 ovarian) [µM] | GI50 (NCI-H23 lung) [µM] | TGI (NCI-H23 lung) [µM] | GI50 (UACC-62 melanoma) [µM] | TGI (UACC-62 melanoma) [µM] | GI50 (HCT-15 colon) [µM] | TGI (HCT-15 colon) [µM] | GI50 (HL-60(TB) leukemia) [µM] | TGI (HL-60(TB) leukemia) [µM] | GI50 (CCRF-CEM leukemia) [µM] | TGI (CCRF-CEM leukemia) [µM]
1 | O=C1c2cccnc2-c2nc(-c3ccc([N+](=O)[O-])cc3)cc3c2c1nc1ccccc13 | 13.8 | > 100 | 3.08 | 19.8 | 8.88 | 71.5 | 10.6 | 54.9 | 13.4 | 30.7 | 2.51 | 10.1 | 5.43 | 15.6 | 1.97 | 8.04 | – | – | – | –
2 | CC(CN(CP(=O)([O-])[O-])CP(=O)([O-])[O-])N(CP(=O)([O-])[O-])CP(=O)([O-])[O-].N[C@@H]1CCCC[C@@H]1N.[Pt+2] (stereo not given) | > 100 | > 100 | > 100 | > 100 | > 100 | > 100 | – | – | > 100 | > 100 | > 100 | > 100 | > 100 | > 100 | > 100 | > 100 | > 100 | > 100 | > 100 | > 100
3 | COc1ccccc1NC(=O)C1=C(C)NC(C)=C(C(=O)Nc2ccccc2OC)C1c1ccc(C(C)C)cc1 | – | > 100 | – | > 100 | – | > 100 | – | – | – | > 100 | – | > 100 | – | > 100 | – | > 100 | – | > 1 | – | > 1
4 | CC(C)(C)c1cc(C(O)(C(F)(F)F)C(F)(F)F)c2c(c1)C(C(F)(F)F)(C(F)(F)F)OC(c1ccccc1)(C(C)(C)C)N2 (stereo not given) | – | 16.4 | – | – | – | 12.1 | – | – | – | 46.3 | – | 10.3 | – | 14.6 | – | 13.7 | – | – | – | –
5 | COc1nc2c(nc(N)n2C2OC(CO)C(O)C(O)C2O)c(=O)n1C (stereo not given) | – | > 100 | – | > 100 | – | – | – | – | – | > 100 | – | > 100 | – | > 100 | – | – | – | > 100 | – | > 100
6 | CC(=O)OCCOCNC(=S)N/N=C(\C)c1ccco1 | – | – | – | > 100 | – | – | – | – | – | > 100 | – | > 100 | – | > 100 | – | > 100 | – | – | – | > 100
7 | O=S1(=O)CSc2ccc3ccccc3c2-c2c1ccc1ccccc21 | – | > 100 | – | > 100 | – | – | – | – | – | > 100 | – | > 100 | – | > 100 | – | – | – | > 100 | – | > 100
8 | CC(=O)O[C@H]1CC[C@@]2(C)C(=CC[C@@H]3C2CC[C@]2(C)Nc4oncc4CC32)C1 (stereo not given in full) | – | > 100 | – | – | – | 43.8 | – | – | – | 34.4 | – | > 100 | – | 99 | – | > 100 | – | 31.9 | – | 23
9 | COC(=O)/C(C#N)=C1\N=NNN1CCCc1ccccc1 | – | > 100 | – | – | – | > 100 | – | – | – | – | – | > 100 | – | > 100 | – | > 100 | – | – | – | > 100
10 | CCN(CCCl)CCNc1c2ccccc2nc2ccc(OC)cc12 | – | 4.23 | – | 2.59 | – | 1.37 | – | – | – | 3.24 | – | 2.12 | – | 1.94 | – | 3.39 | – | 3.91 | – | 2.41
11 | Cc1cc(Cl)ccc1N1C(=O)C(=O)C(c2nc3ccccc3s2)C(=O)C1=O | – | > 100 | – | > 100 | – | > 100 | – | – | – | > 100 | – | > 100 | – | > 100 | – | > 100 | – | > 100 | – | > 100
12 | CCOc1ccc(NC(=O)C2=C(C)NC(C)=C(C(=O)Nc3ccc(OCC)cc3)C2c2ccc([N+](=O)[O-])cc2)cc1 | – | > 100 | – | > 100 | – | 64.2 | – | – | – | > 100 | – | > 100 | – | – | – | – | – | 52.7 | – | 90.8
13 | C/C=C/C1(NS(=O)(=O)c2ccc(C)cc2)CCC(C(C)(C)C)CC1 (stereo not given) | – | 98.1 | – | 59.5 | – | 47.1 | – | – | – | 48.4 | – | 51.7 | – | 37.4 | – | 93.7 | – | 44.5 | – | 43.2
14 | Cc1cccc(C)c1NC(=O)C(=O)C1C(=O)N(c2ccccc2)N=C1N (stereo not given) | – | > 100 | – | > 100 | – | > 100 | – | – | – | > 100 | – | > 100 | – | > 100 | – | > 100 | – | > 100 | – | > 100
15 | CCC(=O)O[C@@H]1C2C(OC(C)=O)C34COC(C)([C@@H]3C3C(C[C@]3(C)OC(C)=O)[C@@H](OC(=O)c3ccccc3)C4=O)[C@H](OC(C)=O)[C@@]2(OC(C)=O)C[C@@H]1C (stereo not given in full) | – | > 100 | – | > 100 | – | > 100 | – | – | – | 44.7 | – | 45 | – | > 100 | – | 29.5 | – | 30 | – | 36.8
16 | CC1=C(C(=O)Nc2ccc(F)c(Cl)c2)C(c2cccc(Cl)c2)NC(=O)N1 (stereo not given) | 27.3 | > 100 | 17.2 | 39.4 | 16.3 | 46.9 | 15.4 | 53.1 | – | – | 16.8 | 31.9 | 13.2 | 26.7 | 20.6 | 46.9 | – | 0.156 | 21.2 | 58.2
17 | C[Si](C)(C)/C(Br)=C\CCN1C(=O)CCC1O (stereo not given) | – | – | – | > 100 | – | > 100 | – | – | – | > 100 | – | > 100 | – | > 100 | – | > 100 | – | – | – | > 100
18 | CC(C)(C)c1ccccc1NS(=O)(=O)c1ccccc1 | – | > 100 | – | – | – | > 100 | – | – | – | > 100 | – | > 100 | – | > 100 | – | > 100 | – | > 100 | – | > 100
19 | C[C@H](NC(=O)OC1C2C=CC(O)C1CC2)c1ccccc1 (stereo not given in full) | – | > 100 | – | > 100 | – | 48.6 | – | – | – | > 100 | – | > 100 | – | > 100 | – | 33.6 | – | > 100 | – | > 100
20 | N#CC(C#N)=C1NC(=O)C(c2ccccc2)C(=O)N1 (stereo not given) | – | > 100 | – | > 100 | – | > 100 | – | – | – | > 100 | – | > 100 | – | > 100 | – | > 100 | – | > 100 | – | > 100
21 | CCCCCCCCCCCCC(Br)C(=O)SCCNC(=O)CCNC(=O)[C@@H](O)C(C)(C)COP(=O)(O)OP(=O)(O)OCC1OC(n2cnc3c(N)ncnc32)C(O)C1OP(=O)(O)O (stereo not given in full) | – | – | – | > 56.5 | – | – | – | – | – | > 56.5 | – | > 56.5 | – | > 56.5 | – | > 56.5 | – | > 56.5 | – | > 56.5
22 | Cc1cc(S(N)(=O)=O)c(S/C(=N\NS(=O)(=O)c2ccc(Cl)cc2)c2ccc(Cl)cc2)cc1Cl | > 100 | > 100 | > 100 | > 100 | 22 | > 100 | – | – | > 100 | > 100 | 44.2 | > 100 | > 100 | > 100 | > 100 | > 100 | 40.6 | > 100 | 61 | > 100
